Laboratory results reported in paper PMC11157767 (Molecular Cancer, 2024).

Test system: TFG-MET allograft tumors
Assay: RNA-sequencing, differential expression and GSEA of TFG-MET allograft tumors
Type: in vivo, mouse
Conditions: RNA-sequencing of treated allograft tumors
Procedure: Error bars display standard error of mean, statistical significance was determined using t-test analysis. (****;p<0.0001, ***;p<0.001, **;p<0.01, *;p<0.05). […] Each dot represents an individual replicate. Error bars display standard error of the mean.
Each dot represents one gene.

C[C@@H](Oc1cc(-c2cnn(C3CCNCC3)c2)cnc1N)c1c(Cl)ccc(F)c1Cl [Crizotinib]
expression of Mapk signature genes in tumors: more heterogenous expression
